Laboratory results from a melting point compilation (Tetko et al.).

Row | melting point [°C] | SMILES
1 | 209 to 211 | CN1Cc2cc(Br)ccc2NC1=O
2 | 289 to 291 | O=C(O)c1cc(-c2ccc(-c3ccccc3)cc2)nc2ccccc12
3 | 72 to 74 | O=Cc1ccc(OCc2ccc(Cl)cc2)cc1
4 | 136 to 138 | O=C(CC1CCCCC1)NC1CCC(C(=O)O)CC1 (configuration not stated)
5 | 166 to 168 | CCc1n[nH]c(=O)c(C#N)c1CC
6 | 289 to 291 | Cc1ccccc1/C=C/c1cc(C(=O)O)c2cc(Br)ccc2n1
7 | 234 to 236 | CCn1c(CCl)nc2cc(S(=O)(=O)N3CCCCC3)ccc21
8 | 64 to 66 | OCc1ccc(OCC(F)(F)F)cc1
9 | 189 to 191 | O=Cc1ccc(OCCn2cc(C(=O)O)nn2)c(Cl)c1
10 | 285 to 287 | O=C(NC1(C(=O)O)CCCC1)c1ccc2[nH]ncc2c1
11 | 108 to 110 | NN1CCN(C(c2ccccc2)c2ccccc2)CC1
12 | 58 to 60 | Cc1ccc(-c2cnc(CCl)o2)cc1
13 | 279 to 281 | CNC1(C(=O)O)CCc2ccccc21 (configuration not stated)
14 | 109 to 111 | CC(C)(C)OC(=O)N1CCC(O)(Cc2cccc(Cl)c2)C1 (configuration not stated)
15 | 184 to 186 | O=S(=O)(c1ccc(N2CCNCC2)nc1)N1CCOCC1
16 | 75 to 77 | CN(CC(=O)N1CCOCC1)C(=O)CCl
17 | 206 to 208 | O=C(O)c1sc2cccc(F)c2c1COc1ccccc1
18 | 264 to 266 | Cc1cc(O)cc(=O)n1C1CC1
19 | 62 to 64 | COc1cccc(Oc2ccc(N)cc2)c1
20 | 106 to 108 | Nc1cc(N2CCCC2=O)ccc1F
21 | 98 to 100 | NCC(O)COc1ccc(C(F)(F)F)cc1 (configuration not stated)
22 | 254 to 257 | COc1ccc(C(=O)N2CCC(C(=O)O)CC2)c2ccccc12
23 | 82 to 84 | CCC(Oc1ccccc1Cl)C(=O)O (configuration not stated)
24 | 145 to 147 | CC(=O)Nc1cc(S(=O)(=O)Cl)ccc1C

Row | melting point [°C] | SMILES
25 | 96 to 98 | COc1ccccc1CNc1nc(-c2ccc(C)cc2)cs1
26 | 103 to 105 | N#Cc1ccc(Cn2cnc3ccccc32)cc1
27 | 178 to 180 | O=C(O)c1nccnc1C(=O)Nc1ccc(Cl)cc1
28 | 90 to 92 | COCCOc1cccc(CNC(=O)CCl)c1
29 | 224 to 226 | Cc1oc(C(N)=O)cc1-c1csc(N)n1
30 | 67 to 69 | O=C(CCN1CCOCC1)c1ccc2ccccc2c1
31 | 68 to 70 | CCOC(=O)c1cc(N)c2c(c1)OCO2
32 | 152 to 154 | Nc1cccc(N2CCOC2=O)c1
33 | 189 to 191 | Nc1cccc(N2C(=O)c3ccccc3C2=O)c1
34 | 66 to 68 | COc1ccccc1C(C)N(C)C(=O)CCl (configuration not stated)
35 | 63 to 65 | CC(C)Oc1ccc(CNC(=O)CCl)cc1
36 | 104 to 106 | CCS(=O)(=O)c1ccc(S(=O)(=O)Cl)cc1
37 | 62 to 64 | CC(C)(C)OC(=O)NC1CC1
38 | 109 to 111 | O=C(O)C12CC3CC(CC(F)(C3)C1)C2
39 | 201 to 203 | CC(NC(=O)CCl)c1ccc2ccccc2c1 (configuration not stated)
40 | 88 to 90 | CCOC(=O)c1c(N)sc2c1CCC(CC)C2 (configuration not stated)
41 | 181 to 183 | CCc1nc(N)sc1C(=O)OC
42 | 229 to 231 | CCC(=O)Nc1cccc(C(=O)O)c1
43 | 115 to 117 | COC(=O)/C=C/c1ccc(OC)c(S(=O)(=O)Cl)c1
44 | 140 to 142 | CC(C)C(NC(=O)Nc1ccccc1)C(=O)O (configuration not stated)
45 | 124 to 126 | COCCOc1ccc(Cl)cc1S(N)(=O)=O
46 | 92 to 94 | COc1cc(F)c(C(C)=O)cc1OC
47 | 133 to 135 | COc1ccc(-n2c(C)cc(C=O)c2C)cc1
48 | 110 to 112 | Cc1ccccc1C(=O)NCCC(=O)O

Row | melting point [°C] | SMILES
49 | 169 to 171 | Cc1onc(-c2cccc(Br)c2)c1C(=O)O
50 | 88 to 90 | Cc1coc(-c2cccc(N)c2)n1
51 | 108 to 110 | Cc1noc(C2CC2)c1NC(=O)OC(C)(C)C
52 | 161 to 163 | Oc1nc(-c2ccccc2Cl)no1
53 | 217 to 219 | O=C(Nc1cc(F)ccc1C(=O)O)c1cccc(Br)c1
54 | 153 to 155 | CC(C)c1oc(-c2ccccc2)nc1C(=O)O
55 | 142 to 144 | Cc1cc(Br)cc(C)c1NCc1ncc[nH]1
56 | 123 to 125 | CC(Cl)C(=O)Nc1c(F)c(F)c(F)c(F)c1F (configuration not stated)
57 | 225 to 227 | COc1ccc(C(=O)Nc2ncc(C)s2)cc1N
58 | 128 to 130 | Cc1cccc2ncc(C=O)n12
59 | 167 to 169 | O=C(O)c1cccnc1Oc1cccc(Br)c1
60 | 104 to 106 | COC(=O)C(C)(O)c1ccncc1 (configuration not stated)
61 | 261 to 263 | O=C(O)c1ccc(-c2nnco2)cc1
62 | 242 to 244 | O=C(O)c1cc2cccc(F)c2o1
63 | 124 to 126 | NC1CN(S(=O)(=O)c2ccc3c(c2)OCCO3)C1
64 | 238 to 240 | NC(CC(=O)O)c1ccc(-c2ccccc2)cc1 (configuration not stated)
65 | 204 to 206 | O=C(O)c1ccc(S(=O)(=O)Nc2ccccc2Oc2ccccc2)cc1
66 | 199 to 201 | Nc1ncc(Br)cc1S(N)(=O)=O
67 | 123 to 125 | O=C(O)CNc1cccc(C(F)(F)F)c1
68 | 128 to 130 | CC(C)(C)OC(=O)NC(C(=O)O)c1cccc(Cl)c1 (configuration not stated)
69 | 108 to 110 | CC(C)Cc1ccc(-c2csc(N)n2)cc1
70 | 154 to 156 | Fc1ccc(-n2ncc3c(Cl)ncnc32)cc1
71 | 175 to 177 | Clc1cc(-c2cccnc2)nc2ncnn12
72 | 285 to 287 | CCC(N)(C(=O)O)c1ccccc1 (configuration not stated)

Row | melting point [°C] | SMILES
73 | 65 to 67 | CC(C#N)CSc1ccccc1N (configuration not stated)
74 | 130 to 132 | CCn1c(S)nnc1-c1ccc(C(C)(C)C)cc1
75 | 196 to 198 | Cc1nc(COc2ccc(C(=O)O)cc2)cs1
76 | 157 to 159 | NS(=O)(=O)c1cc(Cl)ccc1[N+](=O)[O-]
77 | 188 to 190 | Cc1ccc(S(=O)(=O)N(C)c2ccc(C(=O)O)cc2)cc1
78 | 160 to 162 | Nc1nc(-c2ccc(OCc3ccccc3)cc2)cs1
79 | 144 to 146 | O=C(O)C1CCN(c2cccc(Br)c2)C1=O (configuration not stated)
80 | 47 to 49 | CNCC1CCN(CC(O)c2ccccc2)CC1 (configuration not stated)
81 | 133 to 135 | Nc1cccc(NC(=O)C2CC2)c1
82 | 83 to 85 | CC(C)(C)c1ccc(Cl)nn1
83 | 76 to 78 | Cc1cc(C(=O)C=O)ccc1F
84 | 289 to 291 | NC(=O)c1ccc(Oc2ccc(C(=O)O)cc2)cc1
85 | 49 to 51 | COc1ccccc1CC(C)CC(=O)O (configuration not stated)
86 | 128 to 130 | O=C(O)CC(Br)C(=O)c1ccccc1 (configuration not stated)
87 | 35 to 37 | CS(=O)(=O)CCCBr
88 | 153 to 155 | Cc1nccn1-c1ccc(F)cc1N
89 | 152 to 154 | CNC(=O)c1ccc(C=O)cc1
90 | 93 to 95 | Cc1ccc(C)n1-c1ccc(N)cc1
91 | 202 to 204 | NC(=O)c1cc(-c2ccccc2)on1
92 | 224 to 226 | O=C(O)c1cc(Cl)cc2cccnc12
93 | 263 to 265 | O=C(O)c1ccc(/C=C/c2ccc3ccccc3n2)cc1
94 | 44 to 46 | CCc1ccc(N)cc1[N+](=O)[O-]
95 | 126 to 128 | CS(=O)(=O)Nc1ccccc1CC(=O)O
96 | 159 to 161 | O=Cc1c[nH]c(-c2ccccc2)n1

Row | melting point [°C] | SMILES
97 | 183 to 185 | O=C(O)CCc1nc2ccccc2c(=O)n1C1CC1
98 | 58 to 60 | Nc1ccc(S(F)(F)(F)(F)F)cc1Br
99 | 238 to 240 | CCOc1ccc(-c2nnc(N)o2)cc1
100 | 124 to 126 | Sc1nnc(Cc2ccccc2)o1
101 | 212 to 214 | COC(=O)Cn1ncc2c(=O)[nH]cnc21
102 | 175 to 177 | N#Cc1ccncc1C(=O)O
103 | 313 to 315 | NCCCc1n[nH]c(N)c1-c1nc2ccccc2s1
104 | 166 to 168 | CC(=O)NCCNC(=O)CCC(=O)O
105 | 41 to 43 | OCCN(Cc1ccccc1)Cc1ccccc1
106 | 146 to 148 | O=C(O)c1cc(S)ccc1Br
107 | 119 to 121 | CC(C)(C)OC(=O)Nc1ccc(CC#N)cc1
108 | 265 to 267 | O=C(O)c1c[nH]c(=O)cn1
109 | 41 to 43 | CC(C)(N)CCS(C)(=O)=O
110 | 118 to 120 | Cc1cc(C)c(S(=O)(=O)NCCC(=O)O)c(C)c1
111 | 163 to 165 | C#CCNC(=O)Nc1cc(C)on1
112 | 103 to 105 | N#CCC(=O)N1CCSCC1
113 | 121 to 123 | NS(=O)(=O)N1CCCCC1
114 | 93 to 95 | CC(C)(C)C(N)=NO
115 | 84 to 86 | O=C(CCCl)Nc1cc([N+](=O)[O-])ccc1F
116 | 165 to 167 | COc1cc(N)ccc1S(=O)(=O)Nc1ccc(F)c(Cl)c1
117 | 219 to 221 | O=C(O)c1cc(F)cc2nccnc12
118 | 177 to 179 | CCc1nn(C)c(CC)c1S(N)(=O)=O
119 | 81 to 83 | COC(=O)c1ccc(-c2nc(C)cs2)cc1
120 | 151 to 153 | Nc1cccc(N2CCS(=O)(=O)CC2)c1

Row | melting point [°C] | SMILES
121 | 90 to 92 | CC(C)(C)OC(=O)NCCC1CNc2ccccc21 (configuration not stated)
122 | 176 to 178 | Nc1ccc(S(=O)(=O)Nc2ccccc2)cc1
123 | 123 to 125 | NCc1cc(=O)n2ccccc2n1
124 | 224 to 226 | COc1ccc2[nH]c(C)c(C(=O)CCl)c2c1
125 | 94 to 96 | COc1cccc(-c2cc(N)n(C)n2)c1
126 | 103 to 105 | CC1CCN(C(N)=S)CC1
127 | 113 to 115 | COc1ccccc1CNC(=O)C(C)Cl (configuration not stated)
128 | 134 to 136 | NC(=O)COc1ccc(C=O)cc1
129 | 59 to 61 | O=C(O)CC1CCOCC1
130 | 64 to 66 | OCCNc1ccccn1
131 | 158 to 160 | O=C(O)c1nccn2c(Br)cnc12
132 | 216 to 218 | CCS(=O)(=O)c1ccc(C(=O)O)cc1
133 | 96 to 98 | CC1CCN(C(=O)c2cccnc2Cl)CC1
134 | 97 to 99 | Cc1sc(C(=O)O)cc1[N+](=O)[O-]
135 | 90 to 92 | CC(C)C(Br)C(=O)N1CCc2ccccc2C1 (configuration not stated)
136 | 79 to 81 | c1ccc2nn(C3CCNC3)cc2c1 (configuration not stated)
137 | 208 to 210 | O=C1CCSc2ccccc2N1
138 | 104 to 106 | CCc1ocnc1C(=O)O
139 | 62 to 64 | Nc1ccc(Oc2cc(Cl)ccc2Cl)c(F)c1

Row | SMILES | melting point [°C]
140 | Fc1ccc2c(C3CCNCC3)c[nH]c2c1 | 225 to 227
141 | CN(C(=O)CCl)c1nccs1 | 123 to 125
142 | CC(NC(=O)CCl)c1ccco1 (configuration not stated) | 63 to 65
